This test deals with bacteria, fungi, and/or yeasts. The format is binding.
Setting [1] is: microorganism(s) listed as target(s) of the targeting peptide, wrapped target lists given cell by cell.
Where [2] appears, read: microorganism(s) the targeting peptide binds, as listed in Table 2.
The mark [3] stands for this setting: microorganism(s) that the targeting peptide binds, as listed in Table 2.

“Also recorded” adds a separate entry of the source. Where two headings read alike, the source gives them in different places.

Regarding “1T-272 (QLAPIDKQLKAVKKIAFYESESTAAKAVTVA)”, under setting [1], the “Target(s)” value is listed as “F. nucleatum, S. mutans, S. oralis,; also recorded: S. sanguinis”.

Take 1T-101 (RLRVGRATDLPLTSFAVGVVRNLPDAPAH): under setting [2], the “Target(s)” value is reported as “A. naeslundii, P. gingivalis, S. epidermidis,; also recorded: S. gordonii, S. mitis,; also recorded: S. mutans, S. oralis, S. sanguinis”. Consider PF-165 (GPVSVVASLRRGTTVQRHSQNNHNKGKP), for which the “Target(s)” value under setting [1] was “MRSA, C. jejuni”.

As for “1T-130 (QKIIDMSKFLFSLILFIMIVVIYIGKSIGGYSAIVSSIMLELDTVLYNKKIFFIYK)”, under setting [2], the “Target(s)” value is “A. naeslundii, F. nucleatum, P. gingivalis,; also recorded: S. epidermidis, S. gordonii,; also recorded: S. mitis, S. mutans, S. oralis,; also recorded: S. salivarious, S. sanguinis”. Take 1T-265 (GMFENLLMINFQIMNDLKIEIVVKDRICAV): the “Target(s)” value under setting [1] was “A. naeslundii, F. nucleatum, P. gingivalis,; also recorded: S. epidermidis, S. gordonii,; also recorded: S. mitis, S. mutans, S. oralis,; also recorded: S. salivarious, S. sanguinis”. Regarding 1T-120 (DVRDRVDLAGADLCAAHATR), the “Target(s)” value under setting [2] was “A. naeslundii, F. nucleatum, P. gingivalis,; also recorded: S. epidermidis, S. gordonii,; also recorded: S. mitis, S. mutans, S. oralis,; also recorded: S. salivarious, S. sanguinis”. Regarding “1T-253 (KTKESLTQQEKKFLKDYDRKSLHHFRDILTYCFILDKLTNK)”, under setting [1], the “Target(s)” value is on record as “A. naeslundii, F. nucleatum, P. gingivalis,; also recorded: S. epidermidis, S. gordonii,; also recorded: S. mitis, S. mutans, S. oralis,; also recorded: S. salivarious, S. sanguinis”.

Regarding 1T-154 (YFSFLEIVGMARR), under setting [2], the “Target(s)” value is “P. gingivalis”. In the case of PF-156 (LITAEQPATAPIAGK), under setting [1], the “Target(s)” value was “S. epidermidis, C. jeikeium”. For PF-166 (SKAVSRKRSI), the “Target(s)” value under setting [1] is listed as “E. coli, C. jeikeium”. For the substance 1T-147 (GVENRRFYERDVSKVSMMTSEAVAPRGGSK), under setting [2], the “Target(s)” value is on record as “A. naeslundii, F. nucleatum, P. gingivalis,; also recorded: T. denticola, S. gordonii,; also recorded: S. mitis, S. mutans, S. oralis,; also recorded: S. salivarious, S. sanguinis”. Same read-out and setting: for 1T-72 (EPTDGVACKER) the value was “P. aeruginosa”; for 1T-34 (AFWLNILLTLLGYIPGIVHAVYIIAKR), “S. aureus, S. epidermidis, C. jeikeium,; also recorded: C. xerosis, C. striatum,; also recorded: P. aeruginosa”.

For “1T-167 (SRMSEHSPAGLVFEVGPMDKGSFIILDSYHPTVKK)”, the “Target(s)” value under setting [2] is “A. naeslundii, F. nucleatum, P. gingivalis,; also recorded: S. epidermidis, S. gordonii,; also recorded: S. mitis, S. mutans, S. oralis,; also recorded: S. salivarious, S. sanguinis”.

As for 1T-22 (VPLDDGTRRPEVARNRDKDRED), the “Target(s)” value under setting [2] was “S. epidermidis, P. aeruginosa”.

In the case of PF-154 (GIKKSKHPSTDDYVVKTTIDSL), the “Target(s)” value under setting [1] is “S. mutans”. The same measure, in the same setting: as for PF-173 (AGRTAIVQGGG), the entry is “S. epidermidis, M. luteus, P. mirabilis,; also recorded: E. coli, P. aeruginosa,; also recorded: C. albicans, C. jeikeium, C. jejuni”.

On to PF-C008 (AQPRRTWLVNFGEVPSPGLTNDGMPDH), for which, under setting [3], the “Target(s)” value is given as “A. naeslundii”.

For the substance PF-035 (SFYESY), the “Target(s)” value under setting [1] is “S. epidermidis, M. luteus, E. coli,; also recorded: C. albicans, MRSA, C. jeikeium,; also recorded: C. jejuni”. As for “PF-C072 (KKMFSLIRKVNWIFFILFIVLDLTNVFPLIRTILFAILSRQ)”, under setting [3], the “Target(s)” value is “A. naeslundii, F. nucleatum, P. gingivalis,; also recorded: S. mutans, T. denticola”. Take 1T-114 (RQAPGPGLVTITAACSAPGSRSR): the “Target(s)” value under setting [2] was “A. naeslundii, P. gingivalis, S. epidermidis,; also recorded: S. gordonii, S. mitis,; also recorded: S. mutans, S. oralis, S. sanguinis”.

With 1T-66 (DTDCLSRAYAQRIDELDKQYAGIDKPL), under setting [2], the “Target(s)” value was “S. mutans, S. aureus, S. epidermidis,; also recorded: C. jeikeium, C. xerosis,; also recorded: C. striatum, P. aeruginosa”. PF-074 (RDIHPIYFMTKD): the “Target(s)” value under setting [1] is given as “S. epidermidis, M. luteus, MRSA”. On to “Rv1535 (DPLVDGAARLLSIPLRHLYAALWRVGLLEVQA)”, for which the “Target(s)” value under setting [1] is on record as “C. albicans”. Take 1T-90 (RNVIGQVL): the “Target(s)” value under setting [2] is given as “S. gordonii, S. mitis, S. mutans,; also recorded: S. oralis, S. sanguinis”. The same measure, in the same setting: as for 1T-41 (KRGSKIVIAIAVVLIVLAGVWVW), the entry is “S. mutans, S. aureus, S. epidermidis,; also recorded: C. jeikeium, C. striatum,; also recorded: P. aeruginosa”.

With “1T-215 (VCFKDISVFLSPFRGQEVLFCGKAKHSLIYVIGT)”, the “Target(s)” value under setting [2] is on record as “S. sanguinis”. Consider 1T-8 (FSVAACGEQRAVTFVLLIEDLI), for which the “Target(s)” value under setting [2] is listed as “M. xanthus”.

In the case of 1T-126 (QGLARPVLRRIPL), the “Target(s)” value under setting [2] is “S. gordonii, S. mitis, S. mutans”.

Consider 1T-287 (KGYPLPFQYRLNNH), for which, under setting [1], the “Target(s)” value is listed as “P. gingivalis, T. denticola, S. gordonii,; also recorded: S. mitis, S. mutans, S. oralis,; also recorded: S. salivarious, S. sanguinis”.

With 1T-300 (PLIISKAQIKMSGDILGSCFKLFYLRPFF), the “Target(s)” value under setting [1] is “S. salivarious, S. sanguinis; also recorded: A. naeslundii, F. nucleatum, P. gingivalis,; also recorded: S. epidermidis, S. gordonii,; also recorded: S. mitis, S. mutans, S. oralis,”. For the substance PF-C062 (PLARATEVVATLFIICSLLLYLTR), the “Target(s)” value under setting [3] is reported as “A. naeslundii, F. nucleatum, P. gingivalis,; also recorded: S. mutans, T. denticola”. As to PF-C055 (YNLSIYIYFLHTITIAGLITLPFII), the “Target(s)” value under setting [3] is given as “A. naeslundii, F. nucleatum, P. gingivalis,; also recorded: S. mutans”. Consider PF-S024 (SKRGRKRKDRRKKKANHGKRPNS), for which the “Target(s)” value under setting [1] is listed as “Corynebacteria spp”.

On to 1T-92 (GQDEGQRRAGVGEGQGVDG), for which the “Target(s)” value under setting [2] was “S. mitis, S. mutans”. Still for that read-out and setting: as for “1T-238 (IFNRRKFFQYFGLSKEAMVEHIQPFILDIWQIHLF)”, the entry is “A. naeslundii, F. nucleatum, P. gingivalis,; also recorded: S. epidermidis, S. gordonii,; also recorded: S. mitis, S. mutans, S. oralis,; also recorded: S. salivarious, S. sanguinis”. In the case of PF-045 (LDINDYRSTY), under setting [1], the “Target(s)” value is on record as “S. epidermidis, E. coli, E. faecalis,; also recorded: C. jejuni”. As to PF-796 (YTQSNIPTAYALMLSNKDSI), the “Target(s)” value under setting [3] is recorded as “S. mutans”. As for PF-058 (FADQSQDNA), the “Target(s)” value under setting [1] was “S. epidermidis, M. luteus, E. coli,; also recorded: C. albicans, MRSA, C. jeikeium,; also recorded: C. jejuni”. As for PF-015 (SIDKRNLYNLKYYE), the “Target(s)” value under setting [1] is recorded as “E. faecalis, C. jeikeium”. As for PF-C068 (LNLFASI), under setting [3], the “Target(s)” value is reported as “A. naeslundii, F. nucleatum, S. mutans”.

Take 1T-27 (ALFVSLEQFLVVVAKSVFALCHSGTLS): the “Target(s)” value under setting [2] is “S. mutans, S. aureus, S. epidermidis,; also recorded: C. jeikeium, C. xerosis,; also recorded: C. striatum, P. aeruginosa”. Same read-out and setting: as for “1T-139 (AVAGAAVGALLGNDARSTAVGAAIGGALGAGAGELTKNK)”, the entry is “A. naeslundii, S. gordonii, S. mitis,; also recorded: S. mutans, S. oralis”. Take PF-543: the “Target(s)” value under setting [1] is given as “C. albicans hyphae”. On the same count and under the same terms, for 1T-290 (IINQLNLILLRLMEILIL) the value was “A. naeslundii, F. nucleatum, P. gingivalis,; also recorded: S. gordonii, S. mitis,; also recorded: S. mutans, S. oralis, S. salivarious,; also recorded: S. sanguinis”. As for 1T-25 (VGLDVSVLVLFFGLQLLSVLLGAMIR), under setting [2], the “Target(s)” value is recorded as “S. aureus, S. epidermidis, C. xerosis,; also recorded: C. striatum, P. aeruginosa”. For the substance 1T-188 (HRKDVYKK), the “Target(s)” value under setting [2] is “S. sanguinis”.

In the case of 1T-127 (YDPVPKRKNKNSEGKREE), the “Target(s)” value under setting [2] is “A. naeslundii, F. nucleatum, P. gingivalis,; also recorded: T. denticola, S. gordonii,; also recorded: S. mitis, S. mutans, S. oralis,; also recorded: S. salivarious, S. sanguinis”. On the same count and under the same terms, as for 1T-44 (DPALADFAAGMRAQVRT), the entry is “S. mutans, S. aureus, S. epidermidis,; also recorded: C. jeikeium, C. striatum,; also recorded: P. aeruginosa”; as for 1T-239 (ADDLLNKRLTDLIMENAETVKTIDLDNSD), “A. naeslundii, S. gordonii, S. mitis,; also recorded: S. mutans, S. oralis, S. sanguinis”. Regarding PF-071 (HCVIGNVVDIANLLKRRAVYRDIADVIKMR), under setting [1], the “Target(s)” value is recorded as “S. epidermidis, E. coli, P. aeruginosa,; also recorded: C. albicans, MRSA,; also recorded: S. pneumoniae, E. faecalis, C. jeikeium,; also recorded: C. jejuni”. Regarding PF-S015 (IENLERGARRPP), the “Target(s)” value under setting [3] is on record as “S. epidermidis, MRSA, C. jeikeium”. In the case of PF-145 (GIVLTGRAGLVSGACSMALGVGLG), the “Target(s)” value under setting [1] is reported as “S. epidermidis, M. luteus, P. mirabilis,; also recorded: E. coli, P. aeruginosa,; also recorded: C. albicans, MRSA, S. pneumoniae,; also recorded: E. faecalis, C. jeikeium,; also recorded: C. jejuni, M. smegmatis”. Still for that read-out and setting: for PF-629 (GLAAIATVFALY) the value was “yeast and hyphal forms”; for PF-146 (GCGKRRIITKSASRDTR), “S. epidermidis, M. luteus, P. aeruginosa,; also recorded: C. albicans, MRSA,; also recorded: C. jeikeium”. On the same count and under the same terms, as for TT-311 (AIFDAMHNL), the entry is “S. mutans, S. sobrinus”; as for PF-047 (NQEPSLQQDKEQKDNKG), “S. mutans”. Still for that read-out and setting: for PF-131 (RRAAARTKGNRR) the value was “S. epidermidis, E. coli, MRSA, C. jeikeium”; for 1T-267 (RIKEERKNRSYKFFIWRLFDEKTGFI), “A. naeslundii, F. nucleatum, P. gingivalis,; also recorded: T. denticola, S. mitis,; also recorded: S. mutans, S. oralis, S. sanguinis”. With 1T-87 (EAVGQDLVDAHHP), the “Target(s)” value under setting [2] is “S. mitis, S. mutans, S. oralis”. Consider “PF-C194 (NTNDLLQAFELMGLGMAGVFIVLGILYIVAELLIKIFPVNN)”, for which, under setting [3], the “Target(s)” value is on record as “A. naeslundii, F. nucleatum, P. gingivalis,; also recorded: S. mutans, T. denticola”. Turning to 1T-264 (LEGKFYMAEDFDKTPECFKDYV), under setting [1], the “Target(s)” value is listed as “S. sanguinis”. As for 1T-128 (SGSAIRMLEIATKMLKR), the “Target(s)” value under setting [2] is listed as “A. naeslundii, P. gingivalis, S. epidermidis,; also recorded: S. gordonii, S. mitis,; also recorded: S. mutans, S. oralis, S. salivarious,; also recorded: S. sanguinis”. With PF-042 (LLLSYFRYTGALLQSLF), the “Target(s)” value under setting [1] was “S. epidermidis, M. luteus, P. mirabilis,; also recorded: E. coli, P. aeruginosa,; also recorded: C. albicans, MRSA, S. pneumoniae,; also recorded: E. faecalis, C. jeikeium”. On to “1T-291 (DMKIIKLYIKILSFLFIKYCNKKLNSVKLKA)”, for which the “Target(s)” value under setting [1] was “A. naeslundii, F. nucleatum, P. gingivalis,; also recorded: T. denticola, S. mitis,; also recorded: S. mutans, S. oralis”.

These data come from patent US20120003661A1, “METHODS AND DEVICES FOR THE SELECTIVE DETECTION OF MICROORGANISMS” (C3 JIAN, INC., priority 2010, published 2012).
